# In PubChem BioAssay (NCI):
# Where “and” joins values, the source holds several entries; their conditions need not be identical. Identical values can stand only once.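 Dose response: 5 concentrations. Exposure: 48 h. Format: 96-well plates. Endpoint: linear interpolation; highest concentration if not reached. GI50 marks 50% less growth. Definition used: TGI = concentration required for complete inhibition of growth.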
# Legend:
# Assay in all cases: NCI anticancer screen, dose series, 48 h
# [1] = tested on: CAKI-1 renal
# [2] = tested on: HCT-116 colon
# [3] = tested on: HL-60(TB) leukemia
# [4] = tested on: KM12 colon
# [5] = tested on: OVCAR-8 ovarian
# [6] = tested on: RPMI-8226 leukemia
# [7] = tested on: SNB-19 CNS
# [8] = tested on: SNB-75 CNS
# [9] = tested on: SW-620 colon
# [10] = tested on: UACC-62 melanoma
Compound,GI50 [1],TGI [1],GI50 [2],TGI [2],GI50 [3],TGI [3],GI50 [4],TGI [4],GI50 [5],TGI [5],GI50 [6],TGI [6],GI50 [7],TGI [7],GI50 [8],TGI [8],GI50 [9],TGI [9],GI50 [10],TGI [10]
[Cu+2].[Cu+2].[O-]c1ccccc1C=Nc1ccccc1[O-].[O-]c1ccccc1C=Nc1ccccc1[O-],10800 nM,22.8 µM,2470 nM,6.55 µM,2520 nM,7240 nM,10000 nM,27 µM,8.16 µM,31.6 µM,3500 nM,54.6 µM,5320 nM,17.8 µM,10200 nM,21.8 µM,6610 nM,26.2 µM,3550 nM,14 µM
O=C(Cc1ccccc1)Oc1ccc2c(-c3ccccc3)c(C(=O)Nc3ccc(Cl)cc3)c(=O)oc2c1,–,> 100 µM,–,> 100 µM,–,> 100000 nM,–,> 100 µM,–,> 100 µM,–,> 100 µM,–,> 100 µM,–,> 100 µM,–,> 100 µM,–,> 100 µM
CC1(C)CCC(S(=O)(=O)c2ccc3c(c2)/C(=N\O)c2cc(S(=O)(=O)N4CCC(O)(c5cccc(C(F)(F)F)c5)CC4)ccc2-3)CC1,75.2 nM,1.14 µM,16.3 nM,0.0327 µM,20.3 nM,68.1 nM,21.7 nM,0.0503 µM,0.034 µM,0.112 µM,25.5 nM,0.09 µM,67.3 nM,0.215 µM,15.8 nM,0.0349 µM,15.4 nM,0.0319 µM,19.6 nM,0.0351 µM
Cc1nc2sc(C(=O)Nc3cccc4ccccc34)c(N)c2cc1C(C)O (stereo unspecified),192 nM,> 50 µM,233 nM,> 50 µM,124 nM,355 nM,199 nM,> 50 µM,0.368 µM,> 50 µM,223 nM,> 50 µM,244 nM,> 50 µM,119 nM,> 50 µM,175 nM,> 50 µM,243 nM,> 50 µM
O=C(NNc1nc2cc(F)ccc2n2c(CN3CCOCC3)ccc12)c1ccccc1,223 nM,1.5 µM,139 nM,1.38 µM,250 nM,931 nM,369 nM,2.45 µM,0.321 µM,7.66 µM,263 nM,2.6 µM,311 nM,2.27 µM,300 nM,3.63 µM,330 nM,2.11 µM,244 nM,1.14 µM
CCOc1ccc(NC(=O)Nc2cc(C(C)C)ccc2C)cc1,6350 nM,28.2 µM,5730 nM,16.1 µM,> 57900 nM,> 100000 nM,11600 nM,> 100 µM,3.67 µM,14.8 µM,10900 nM,> 65.8 µM,10400 nM,39 µM,2820 nM,10.2 µM,11200 nM,> 100 µM,16200 nM,> 89.8 µM
CN(C(=O)c1ccc(F)cc1C(F)(F)F)C1CCN(c2nnc(-c3ccnn3C)c3ccccc23)CC1,31900 nM,> 100 µM,40800 nM,> 100 µM,27300 nM,> 84100 nM,52800 nM,> 100 µM,30.5 µM,> 100 µM,19100 nM,> 100 µM,51700 nM,> 100 µM,14500 nM,> 100 µM,> 100000 nM,> 100 µM,28900 nM,> 100 µM
COc1ccc(OC)c(/C=C/[N+](=O)[O-])c1,–,7.74 µM and 7.64 µM,–,12.7 µM and 6.06 µM,1660 nM and 651 nM,4500 nM and 2790 nM,2600 nM and 13300 nM,7.27 µM and 27.4 µM,3.31 µM,17.3 µM and 15.2 µM,1740 nM,4.42 µM and 4.74 µM,–,15.2 µM and 9.89 µM,5300 nM,12.9 µM and 11.8 µM,–,16.9 µM and 5.39 µM,1980 nM and 4370 nM,5.34 µM and 12.1 µM
C[C@@H]1O[C@@H](O[C@H]2C[C@@H](O)[C@]3(CO)C4C(CC[C@]3(O)C2)[C@@]2(O)CC[C@H](C3=CC(=O)OC3)[C@@]2(C)C[C@H]4O)[C@H](O)[C@H](O)[C@H]1O (stereo partly specified),16.6 nM,0.0679 µM,17.4 nM,0.056 µM,13 nM,31.8 nM,51.2 nM,0.132 µM,0.0189 µM,0.0691 µM,67.2 nM,1.76 µM,60.5 nM,0.125 µM,27.7 nM,0.0946 µM,22 nM,0.0869 µM,81.9 nM,0.151 µM
OCC1SC(n2cnc3cncnc32)C(O)C1O (stereo unspecified),> 100000 nM,> 100 µM,> 100000 nM,> 100 µM,> 100000 nM,> 100000 nM,> 100000 nM,> 100 µM,85.2 µM,> 100 µM,> 100000 nM,> 100 µM,> 100000 nM,> 100 µM,> 100000 nM,> 100 µM,> 100000 nM,> 100 µM,> 100000 nM,> 100 µM
